Reference: patent US20220400703A1, “FORMULATIONS FOR TREATMENT OF VIBRIO INFECTIONS” (ARIZONA BOARD OF REGENTS ON BEHALF OF THE UNIVERSITY OF …, priority 2019, published 2022)
“And” between values parts separate entries of the source, which are not always exact repeats. Equal values may be shown once. “Also recorded” adds a separate entry of the source.

Legend:
[1] = system: VPAHPND (13-028/A3), AHPND-causing Vibrio parahaemolyticus; assay: Paper disk diffusion assay; format: cell-based; conditions: mean ± SD; for Average diameter of inhibitory zone (mm) CNE 1/16: extract concentration 1/16 (v/v); for Average diameter of inhibitory zone (mm) CNE 1/16 / Average diameter of inhibitory zone (mm) CNE ¼ / Average diameter of inhibitory zone (mm) CNE ½ / Average diameter of inhibitory zone (mm) CNE ⅛: ND: not detected, <7 mm = no antimicrobial activity; for Average diameter of inhibitory zone (mm) CNE ¼: extract concentration ¼ (v/v); for Average diameter of inhibitory zone (mm) CNE ½: extract concentration ½ (v/v), 2 μL on paper disk, TSA+, 28° C., 24 hr; for Average diameter of inhibitory zone (mm) CNE ⅛: extract concentration ⅛ (v/v)
Experimental: (§1) VPAHPND (13-028/A3) was revived from glycerol stock kept in −80 degrees C. in Aquaculture Pathology Laboratory following a previous publication (Han et al., 2015). Briefly, 800 mL of Tryptic Soy Broth (TSB) containing 2% NaCl (TSB+) medium was prepared and autoclaved. The bacterial stock was thawed on ice and briefly vortexed before transferring 250 μl of the bacterial culture to 5 ml TSB+ in a 50 ml flask. The flask was incubated at 28 degrees C. in a shaker incubator (CORNING, Model LSE) (120 rpm) for 2 h. After the incubation, the broth was transferred into 50 ml TSB+ in a 250 ml flask before incubating at 28 degrees C. in a shaker incubator (120 rpm) for 2 h. After 2 h., the bacterial culture was mixed with 300 ml TSB and incubated for 24 h at 28 degrees C. After 24 h, the optical density (OD) of the culture was measured at 600 nm. Under these culture conditions, the OD values should exceed 2.8. The broth was diluted to 1×10^7 CFU/ml based on the OD reading. A 10-fold serial dilution of the bacterial culture was prepared and the live bacterial count upon overnight growth was determined by plating the culture on Tryptic Soy Agar (TSA) containing 2% NaCl (TSA+) plates.
The antibacterial activities of the NEs were tested using a paper disk diffusion assay following a previously published method with some modifications (Mith et al., 2014). Briefly, the extracts were diluted with fish oil (NE01-NE013) or DMSO (NE14 to NE18) at the following concentrations: 1:1, 1:2, 1:4, and 1:8. The VPAHPND (13-028/A3) culture lawns were created on TSA+plates by thoroughly streaking the culture over the entire surface of the plate with a cotton swab. Meanwhile, 2 μL of each concentration of the NEs was soaked on to a paper disk for 15 min before placing in the center of the bacteria inoculated TSA+plates. Fish oil and DMSO were used as controls. For each dilution of the NE two replicates were done. The plates were then incubated at 28° C. for 24 hr. The efficacy of the extract in inhibiting bacterial growth was determined by measuring the diameter of clear zones for each concentration to the nearest millimeter (mm). The diameter of the inhibitory zone <7 mm was considered as having no antimicrobial activity (Mith et al., 2014). The experiments were repeated four times for all 18 NEs, and the average was taken to calculate the diameter of the inhibitory zone.

[2] = system: Vibrio parahaemolyticus (Strain A3); assay: Minimum inhibitory concentration (MIC) assay in liquid culture (OD600 and colony count); format: cell-based; conditions: for MIC assay results: effective concentration (Example 1): Example 1, liquid culture; for MIC (Example 2): TSB+ liquid culture, OD600 and colony count, 24 h and 48 h; for Extract concentration at which bacterial count is zero / no survivors: viable colony count at 48 h on TSA+ plates; for OD600: 24 hr
Experimental: Absorbance (OD600) and total colony count (upon plating overnight culture grown in the presence of natural extracts) were employed for screening.
as §1
Initially extracts were diluted up to 50% with diluent fish oil, then a serial dilution of extracts was prepared Concentrations of extracts range between [0.3-0.0937% (v/v)], which was prepared in TSB+ (Tryptic soy broth) medium. The culture medium TSB+ (2 ml) containing NEs was inoculated with 100 μL (approx. 1×10^7 CFU/mL) of an overnight culture of the pathogen and briefly mixed by vortexing before incubating at 28 degrees C. The OD600 values was recorded at 12, 24 and 48 h post-incubation (FIG. 9). In addition, at each time point and for each concentration of the NEs, aliquots of bacterial suspension were inoculated on TSA+plate before incubating overnight at 28 degrees C. The MIC for each NE was determined by recording OD600 values and taking bacterial count. For each NE, the MIC assay was repeated three times on different days, and the average OD600 value was taken to determine the MIC for each concentration of a corresponding NE.

VPAHPND cells = assay: Scanning electron microscopy of NE treated VPAHPND cells; format: cell-based, Vibrio parahaemolyticus; conditions: sub-inhibitory concentration of extract, 24 hr incubation
Experimental: The effect of NEs on bacterial cells was determined by culturing VPAHPND in medium containing NEs and examining the cells under a scanning electron microscope (SEM). The subinhibitory concentration of extracts used in the medium was MIC. The control treatment was VPAHPND grown in the presence of fish oil. Samples were fixed by following a protocol described by Lv et al. (2011) and McQuade et al. (2012) with some modifications. Briefly, 25 μl of 8% glutaraldehyde solution (Electron Microscopy Sciences, Hatfield, Pa.) was added to 200 μl of the overnight culture of bacteria. After 40 minutes of incubation at room temperature, samples were washed three times with 1× phosphate-buffered saline (PBS, pH 7.0). Subsequently, samples were washed with water and stained with 1% osmium tetroxide (Ted Pella, Inc., Redding, Ariz.). Finally, samples were washed in water and dehydrated in a series of ethanol solutions with concentrations ranging from 30% to 90% (v/v). The slides with fixed bacterial cells were mounted, sputter-coated in gold under vacuum, and examined using a […] field emission scanning electron microscope (ANATECH, USA).

[3] = system: AHPND-causing Vibrio parahaemolyticus; assay: Histopathology (H&E) of hepatopancreas of shrimp from the AHPND bioassay; format: in vivo, Penaeus vannamei
Text: (§2) Specific Pathogen Free shrimp (P. vannamei) (avg. weight 1-2 g) were stocked at a density of 10 shrimp/tank. In total there were two treatments and two controls: shrimp fed diet containing 20% NE05, 10% NE05, a positive and a negative control (shrimp fed diet containing fish oil). Each treatment and control had two replicates. Animals in all treatments except the negative control were subjected to an immersion challenge with V. parahaemolyticus. In the negative control tanks, sterilized TSB+ medium was added instead of bacterial suspension. Throughout the experiment, shrimps were fed corresponding diets daily at 5% of their body weight. The experiments were repeated three times. On day 6 post-feeding of the experimental diets, shrimps were challenged with V. parahaemolyticus at a dose of 10^6 CFU/ml (500 ml of V. parahaemolyticus culture grown for 24 h, OD600 of 5). After the bacterial challenge, tanks were monitored several times a day, and mortalities were recorded, and dead shrimps were removed immediately. Hepatopancreas tissue from moribund shrimp was dissected, half of the tissue was preserved in Davidson's fixative for histopathology, while the remaining half of hepatopancreas was stored at −20 degrees C. for PCR detection of V. parahaemolyticus. […] At the termination of the bioassay, average mortality for each treatment was calculated, and one-way ANOVA was performed to determine any significant difference among different treatments. A (p-value <0.05) between treatments was considered significant.
Moribund shrimp were fixed in Davidson's alcohol-formalin-acetic acid (AFA). The samples were processed, embedded in paraffin, and sectioned ([…]) following a standard protocol (Lightner, 1996). The sections were stained with hematoxylin and eosin (H&E) and examined using a light microscope for histological lesions of AHPND (Tran et al., 2013).

[4] = system: AHPND-causing Vibrio parahaemolyticus; assay: AHPND bioassay: NE05 in diet, immersion challenge (clinical signs, survival, mortality); format: in vivo, Penaeus vannamei; conditions: for Percent survival: 7 days post-challenge, three independent experiments
Experimental: The efficacy of NE05 in preventing AHPND was evaluated by using an in vivo assay. The NE05 was mixed with a commercially pelleted shrimp diet at concentrations of 20% and 10% (v/w). Commercial diets containing 20% and 10% fish oil were used as controls. The feed was prepared using a standard feed maker (CORNING, Model LSE) and dried in a chemical hood for 24 h at room temperature. The feed was coated with fish oil dried for an additional 12 h to prevent the smell and increase palatability.
Ten 37 L glass tanks were used in this study. Seawater was prepared following a SOP used in Aquaculture Pathology Laboratory. Approximately 800 g of sea salt (Marinex, Baltimore, Md.) was mixed with 30 L of tap water to get 20-25 ppt of salinity. After the marine salt was dissolved, salinity was checked using a refractometer (SPER SCIENTIFIC, Model #300011). The salinity level of the water was adjusted by adding water until the range needed for the study was reached (20-25 ppt). Throughout the experiment, the room temperature was maintained at 29±2 degrees C. using a heater. Before starting the bioassay, the tanks were held for two days without any animal to equilibrate the water temperature to that of the room. The water temperature was maintained at 29±2 degrees C. Each tank was equipped with an air pump having an air capacity of 2.5 liters/min connected to two air stones. One air stone was directly immersed into the tank, and the other one was connected to the filters. Disinfected weight was kept above each air stone. The heater was kept inside the room during the experiment.
as §2

Molecule | Average diameter of inhibitory zone (mm) CNE 1/16 [1] [mm] | Average diameter of inhibitory zone (mm) CNE ¼ [1] [mm] | Average diameter of inhibitory zone (mm) CNE ½ [1] [mm] | Average diameter of inhibitory zone (mm) CNE ⅛ [1] [mm] | MIC assay results: effective concentration (Example 1) [2] [v/v %] | MIC (Example 2) [2] [v/v %] | Extract concentration at which bacterial count is zero / no survivors [2] | Bacterial cell morphology under SEM (VPAHPND cells) | further results
Cc1ccc(C(C)C)cc1O [NE03, Cavacrol] | 8.53 ± 0.16 | 16 ± 0.77 | 20.51 ± 0.97 | 13.53 ± 0.42 | 0.007 | 0.075 | 0.075 % (v/v) | non-intact lysed cells with possible leaking out of cytoplasmic constituents; also recorded: disruption of cell surface and leaking of cytoplasmic components; also recorded: affected bacterial cell wall resulting in its disruption and leaking of intracellular components | 
Doxycycline Hyclate [reference compound] |  |  |  |  |  |  |  |  | Average diameter of inhibitory zone (mm), antibiotic reference standard ([1]; Doxycycline Hyclate 10 μg): 24.43±0.57 mm
O=C/C=C/c1ccccc1 [NE05, Trans Cinnamaldehyde] | 9.36 ± 0.32 | 18.66 ± 0.98 | 26±1.8 | 14.03 ± 0.80 | 0.002 | 0.02 | 0.02 % (v/v) | extensive cell wall damage, and possible leaking out of intracellular components; also recorded: disruption of cell surface and leaking of cytoplasmic components; also recorded: affected bacterial cell wall resulting in its disruption and leaking of intracellular components | Histopathology of hepatopancreas ([3]; NE05-10% treatment, 24 h post-challenge): Mild sloughing of epithelial cells in hepatopancreatic tubule; Histopathology of hepatopancreas ([3]; NE05-10% treatment, 48 h post-infection): hallmark of AHPND infection; Histopathology of hepatopancreas ([3]; NE05-20% treatment, 24 & 48 h post-challenge): did not show any lesions that are considered pathognomonic of AHPND; also recorded: showed no lesions that are pathognomonic of AHPND; H&E histological section of HP tissue (FIGS. 19E-19F) ([3]; diet containing NE05-10%, challenged with AHPND): Terminal phase lesions displaying sloughing of necrotic HP tubule epithelial cells; H&E histological section of HP tissue (FIGS. 19G-19H) ([3]; diet containing NE05-20%, challenged with AHPND): Hepatopancreatic tubule appear similar to healthy animals; Mortality by day 3 ([4]; diet containing NE05-10%): 85%; Time at which mortality began post-challenge ([4]; diet containing NE05-10%): 10 h; Percent survival ([4]; diet containing NE05-10%): 15%; Mortality during the first 24 h post-challenge ([4]; diet containing NE05-20%): did not show mortality; Percent survival ([4]; diet containing NE05-20%): 100% and 93%; Mortality by day 2 ([4]; diet containing NE05-20%, thereafter no mortality): 4%; Gross clinical signs of AHPND ([4]; shrimp fed diet containing NE05 at 10%, immersion challenge): appeared clinically similar to the animals fed commercial diet; also recorded: HP appeared pale and gut empty
CC(C)=CCCC(C)=CC=O [NE01, Citral] | 7.48 ± 0.42 | 12.53 ± 0.50 | 17.75 ± 1.4 | 9.36 ± 0.58 | 0.015 | 0.15 | 0.15 % (v/v) | a few irregular wrinkled cells but also had a lot of intact cells | OD600 ([2]; extract concentration 0.0983%): 2.5; OD600 ([2]; extract concentration 0.15% (v/v)): zero; Bacterial count ([2]; 48 h, extract concentration 0.0983% (v/v)): 2.5×10^9 CFU/ml
